According to PMC9693223 (Molecules, 2022):
Read-outs that look alike come from different tables or passages of the source.

How the values were obtained:
TcrNT2 = TcrNT2 (Trypanosoma cruzi, UniProt Q4DHG0); conditions: ref Campagnaro et al. [30], cited from earlier work
NT1 transport activity = test system: NT1 transport activity; design: method as in PMID 28453984; conditions: NT1 transport activity in L. mexicana; ref [36]; cited from earlier work
[1] = test system: L. mexicana Cas9 promastigotes; design: method as in de Almeida Fiuza et al. [41]; conditions: starred values, ref de Almeida Fiuza et al. [41], read-out: EC50 (µM) AVG ± SEM, Cas9; cited from earlier work
[2] = test system: L. mexicana Cas9^ΔNT1 promastigotes; design: method as in de Almeida Fiuza et al. [41]; conditions: starred values, ref de Almeida Fiuza et al. [41], cited from earlier work; for RF vs. Cas9 (resistance factor): EC50 Cas9^ΔNT1 relative to Cas9; for EC50: L. mexicana Cas9^ΔNT1 promastigotes, read-out: EC50 (µM) AVG ± SEM, L. mexicana Cas9^ΔNT1
[3] = test system: L. mexicana Cas9^ΔNT1+TcrNT2 promastigotes; design: method as in de Almeida Fiuza et al. [41]; conditions: starred values, ref de Almeida Fiuza et al. [41], cited from earlier work; for RF vs. ΔNT1 (resistance factor): Cas9^ΔNT1+TcrNT2 in comparison to Cas9^ΔNT1; for EC50: L. mexicana Cas9^ΔNT1+TcrNT2 promastigotes, read-out: EC50 (µM) AVG ± SEM, L. mexicana Cas9^ΔNT1+TcrNT2
[4] = test system: intracellular T. cruzi amastigotes; conditions: intracellular amastigotes; ref [16]; read-out: EC50 against intracellular T. cruzi amastigotes; cited from earlier work
[5] = test system: L. mexicana Cas9 promastigotes; assay: Alamar blue drug sensitivity assay, L. mexicana Cas9 promastigotes; assay type: cell-based, Leishmania mexicana; conditions: 72 h + 48 h resazurin, at least 3 independent determinations
Text: (§1) We used L. mexicana promastigotes of the Cas9 strain developed by Beneke at al. to generate the ΔNT1 strain, and from there the Cas9^ΔNT1+TcrNT2 (see below); The original Cas9 strain was generously donated by Prof. Eva Gluenz (University of Bern, Switzerland). All strains in standard HOMEM (GIBCO, Life Technologies, Paisley, UK) supplemented with 10% heat-inactivated fetal bovine serum (FBS; PAA Laboratories, Linz, Austria) and 1% of a penicillin–streptomycin solution (10,000 U mL^−1 each; Life Technologies) at 25 °C, as described.
(§2) The Alamar blue assay (resazurin sodium salt) was used to determine the drug sensitivity of the L. mexicana promastigotes in vitro. The assay is based on the reduction of resazurin sodium salt (blue and non-fluorescent) to resorufin (pink color and fluorescent) by live cells. HOMEM medium with 10% FBS (100 μL) was added to all wells of a white 96-well plate apart from the first well. 200 μL of a known concentration of test compounds was diluted in HOMEM medium and placed in the first well. Compounds were tested in one plate and every compound was diluted over two rows (23 concentrations), leaving the last well of every dilution as a negative control having 100 μL HOMEM medium. Next, 100 μL of L. mexicana culture at a density of 2 × 10^6 cells mL^−1 was added into every well in the plate and incubated for 72 h at a temperature of 25 °C after which resazurin sodium salt (Sigma) (20 μL of a solution of 12.5 mg in 100 mL PBS) was added and the plate was incubated under the same conditions for a further 48 h. Fluorescence was measured in a FLUOstar OPTIMA plate reader (BMG Labtech, Germany), at a wavelength of 544 nm for excitation and 620 nm for emission. The EC50 values and fluorescence data were determined and plotted by the GraphPad Prism 8 Software using an equation for a sigmoid curve with variable slope. Pentamidine was used as positive control and every experiment was performed 3–4 times independently.

[6] = test system: L. mexicana Cas9^ΔNT1 promastigotes; assay: Alamar blue drug sensitivity assay, L. mexicana Cas9^ΔNT1 promastigotes; assay type: cell-based, Leishmania mexicana; conditions: L. mexicana Cas9^ΔNT1 promastigotes, 72 h + 48 h resazurin
Text: as §1, §2

[7] = test system: L. mexicana Cas9^ΔNT1+TcrNT2 promastigotes; assay: Alamar blue drug sensitivity assay, L. mexicana Cas9^ΔNT1+TcrNT2 promastigotes; assay type: cell-based, Leishmania mexicana; conditions: L. mexicana Cas9^ΔNT1+TcrNT2 promastigotes, 72 h + 48 h resazurin
Text: as §1, §2

[8] = test system: T. cruzi epimastigotes (CL Brener strain); assay: In vitro inhibition of proliferation of T. cruzi epimastigotes; assay type: cell-based, Trypanosoma cruzi; conditions: cell densities at the 5th day of proliferation, four independent experiments
Procedure: Trypomastigotes were obtained by infecting CHO-K1 cells. CHO-K1 cells were cultivated in RPMI-1640 medium supplemented with 10% heat-inactivated fetal calf serum (FCS), 0.15% (w/v) […], 100 µg mL^−1 penicillin and 130 µg mL^−1 streptomycin and incubated at 37 °C in a humidified atmosphere containing 5% CO2. CHO-K1 cells were initially incubated with metacyclic trypomastigotes obtained by in vitro differentiation of epimastigotes as previously described (multiplicity of infection: 50 parasites per cell) for 4 h. After washing out the non-internalized parasites, the cells were incubated overnight in RPMI medium supplemented with 10% FCS at 37 °C and then maintained at 33 °C in a humidified atmosphere containing 5% CO2 as previously reported. Infected cells were maintained at 33 °C in the presence of 10% FCS. Infected cell-derived trypomastigotes started to burst into the culture medium at the 5th day post-infection. Trypomastigotes collected at day 5 or 6 post infection were used for the viability assays.
The density of exponentially proliferating epimastigotes for each assay was adjusted to 2.0 × 10^6 parasites mL^−1, transferred into 96-well plates (200 μL/well) and incubated with different concentrations of the compounds 5-F-2′-deoxyuridine, 5-F-uracil, 5-F-uridine or benznidazole. A combination of 60 μM rotenone and 0.5 μM antimycin (RA) was used as a positive control for proliferation inhibition (positive control), as previously described. […] The epimastigote proliferation was measured as previously reported, by reading the optical density (OD) at 620 nm every 24 h for 9 days (which collects readings through the exponential and stationary phases). […] The half-maximal inhibitory concentrations (IC50) were determined during the exponential growth phase (fifth day) by adjusting a sigmoidal dose-response function to experimentally obtained data using GraphPad Prism 8. The compounds were assessed in quadruplicate in each experiment, and the results correspond to four independent experiments.

[9] = substrate: Cc1cn([C@H]2C[C@H](O)[C@@H](CO)O2)c(=O)[nH]c1=O; assay: Transport of [^3H]-thymidine by TcrNT2 expressed in L. mexicana Cas9^ΔNT1 (Km, inhibition); assay type: cell-based, Trypanosoma cruzi; conditions: other: TcrNT2 in L. mexicana Cas9^ΔNT1, […] [^3H]-thymidine, 5 min, n = 3
Procedure: These values can be used to calculate the Gibbs free energy of interaction ΔG°, but these experiments cannot distinguish between the test compound being transported or merely binding to the transporter and inhibiting the transit of the [^3H]-thymidine.
Transport assays were conducted with radiolabeled nucleosides [methyl-^3H]-thymidine (20 Ci/mmol; PerkinElmer (Waltham, MA, USA)) and [2,8-^3H]-adenosine (40 Ci/mmol; American Radiolabeled Chemicals (ARC, St-Louis, MO, USA)). Cells were harvested from mid-log phase cultures by centrifugation and washed into an assay buffer (AB) as described, at a density of 1 × 10^8 cells mL^−1. Transport assays were then performed exactly as described previously, using an oil-stop protocol. […]
Michaelis-Menten constants (Km) were calculated by plotting transport rates of [^3H]-substrate against the concentration, using the Michaelis-Menten equation V0 = Vmax([substrate]/([substrate] + Km)) and non-linear regression in GraphPad Prism 8. Inhibition constants (Ki) were calculated using the Cheng-Prusoff equation: Ki = IC50/(1 + (L/Km)), where L represents the radiolabel concentration. […]

| Molecule | EC50 [1] | RF vs. Cas9 (resistance factor) [2] | EC50 [2] | RF vs. ΔNT1 (resistance factor) [3] | EC50 [3] | also measured |
| --- | --- | --- | --- | --- | --- | --- |
| Nc1ncnc2c1ncn2[C@@H]1O[C@H](CO)[C@@H](O)[C@H]1O [Adenosine] |  |  |  |  |  | Ki (TcrNT2; earlier characterization, TcrNT2 expressed in T. brucei, read-out: Ki on thymidine transport by TcrNT2): 1560 ± 60 µM; ΔG° (Gibbs free energy of interaction) (TcrNT2; from cited Ki): -3.78 kcal/mol; Km (NT1 transport activity): 0.81 ± 0.16 µM |
| Nc1ncnc2c1c(-c1ccccc1)cn2[C@@H]1O[C@H](CO)[C@@H](O)[C@H]1O [TH1004] | 37 ± 0.23 µM | 3.7 | 138 ± 10 µM | 1.37 | 101 ± 0.5 µM |  |
| Nc1ncnc2c1c(-c1ccc(Cl)c(Cl)c1)cn2[C@@H]1O[C@H](CO)[C@@H](O)[C@H]1O [FH3147, 7-(3,4-dichlorophenyl)-tubercidin] | 8.41 ± 1.61 µM | >11.8 | > 100 µM |  | 13.7 ± 1.25 µM | EC50 [4]: 0.19 µM |
| O=c1[nH]c(=O)n([C@@H]2O[C@H](CO)[C@@H](O)[C@H]2O)cc1F [5-F-uridine] |  |  |  |  |  | EC50 ([5]; read-out: EC50 (µM) AVG ± SEM, Cas9): > 500 µM; EC50 ([6]; read-out: EC50 (µM) AVG ± SEM, L. mexicana Cas9^ΔNT1): > 500 µM; EC50 ([7]; read-out: EC50 (µM) AVG ± SEM, L. mexicana Cas9^ΔNT1+TcrNT2): > 500 µM; IC50 [8]: > 500 µM |
| Nc1ncnc2c1c(-c1ccc(Cl)cc1)cn2[C@@H]1O[C@H](CO)[C@@H](O)[C@H]1O [TH1012] | 52.5 ± 0.3 µM | 5.3 | 280 ± 18 µM | 2.90 | 96.6 ± 0.3 µM |  |
| Nc1ncnc2c1c(Cl)cn2[C@@H]1O[C@H](CO)[C@@H](O)[C@H]1O [FH3169] | 0.24 ± 0.055 µM | 8.43 | 2 ± 0.19 µM | 6.26 | 0.32 ± 0.05 µM |  |
| Nc1ncnc2c1c(-c1ccc(Cl)c(F)c1)cn2[C@@H]1O[C@H](CO)[C@@H](O)[C@H]1O [FH10714] | > 500 µM |  | > 500 µM |  | > 500 µM |  |
| O=c1[nH]cc(F)c(=O)[nH]1 [5-F-uracil] |  |  |  |  |  | EC50 (µM) AVG ± SEM, Cas9 [5]: poorly active; EC50 (µM) AVG ± SEM, L. mexicana Cas9^ΔNT1 [6]: poorly active; EC50 (µM) AVG ± SEM, L. mexicana Cas9^ΔNT1+TcrNT2 [7]: poorly active; IC50 [8]: 25.9 ± 0.01 µM |
| TcrNT2 (Trypanosoma cruzi strain CL Brener) (protein) MGLGFEFWGEAYSYAAAIMCGLSMLLPINAIFSAPLYIMNYYQYVMHDPNAVAKHKNFWDNALTYYSMLIMLVALIVEPLTLSEAFRRIPIRLRMLSALSMFWLEIIILMSVPAAGSTEAGAISAIVCASFSSALGKSVFESTAYGLFGVFPSRFNTALMGGVGVAGALASILQLIVKASLPQDYSGIRTQSKIYYGLMAGIHGITFIMVVGLHWVPFAQRYINALSGGTSSPASNNPDQAAESETEAASKANEKSAPKATNGGDDNADSGRLVNTNVIFVLKCVYPMLSACGFNFFITLFLFPTIVVSVDPDDYWYGTVAVCIFNVCDVCGRFSPSLKCLWPPRWVVLVGSFSRVVFVPLLILASYHYIPSHAYNYVMMVIFGLSNGYIGALAITLGPLTRNLETSGQRFVAGTMFGISILIGGTIGSALSILVQTLRG |  |  |  |  |  | Km [9]: 0.263 µM; Km ([9]; […]): 0.26 ± 0.05 µM |
